According to a melting point compilation (Tetko et al.; mined from patent text by program, amines drawn as free bases though some values may be those of a salt):

Point of comparison: `C#CCOC(=O)Oc1ccc(Cc2ccc(OC(=O)OCC#C)cc2)cc1`, melting point 60 °C. Against it:
- CCc1nc2c(C)cc(C)nc2n1-c1ccc(CC(C)OC(=O)NS(=O)(=O)c2ccc(C)cc2)cc1 (stereo not given) — higher, 108 °C
- CC(C)(C)C(=O)Nc1ccncc1-c1noc2ccccc12 — higher, 137 to 138 °C
- CON(C)C(=O)c1cc(Br)cc([N+](=O)[O-])c1N — higher, 129 °C
- CCOCc1nc2c(N)nc3c(c2n1CCCCCS(N)(=O)=O)CCCC3 — higher, 203 to 205 °C
- O=Cc1c(Cl)c(Cl)c(Cl)c(Cl)c1Cl — higher, 201 to 203 °C
- CC(ON=Cc1c(F)cccc1Cl)C(=O)O (stereo not given) — higher, 106 to 107 °C
- CCC(CC)CNC(=O)c1ccc2c(c1)N(C(C)CN1CCCC1)c1ccccc1S2 (racemic) — higher, 115 °C
- Cc1nn(-c2ccccn2)c2nc3ccccc3c(OCC(C)C)c12 — higher, 117 to 120 °C
- O=C(O)COc1c(-c2cc(Cl)cc(Cl)c2)cc(C(=O)NCCCCCCc2ccccc2)cc1-c1cc(Cl)cc(Cl)c1 — higher, 151 to 159 °C
- CCCCCCCCCCCCCCCCCCNC(=O)OCC(CNS(=O)(=O)CCCCl)n1nnnc1C (stereo not given) — higher, 74 to 77 °C
- CCCCNC(=O)[C@@H](C[C@H](O)[C@@H](N)CC1CCCCC1)C(C)C — higher, 88.5 to 90 °C
- C#CCN1C(=O)c2cccc3cccc1c23 — higher, 183 to 186 °C
- Cc1c(-c2ccc(O)cc2)n(Cc2ccc(OCCN3C(C)CCCC3C)cc2)c2ccc(O)cc12 (stereo not given) — higher, 114 to 121 °C
- CCc1c(CC)n(Cc2ccccc2Cl)c2cc(C(=O)OC)ccc12 — higher, 86 to 88 °C
- COC(=O)N(O)Cc1c(C)n(C(=O)c2ccc(Cl)cc2)c2ccc(OC)cc12 — higher, 113 to 114 °C
- CC(C)(C)SC1CN(C(N)=O)CC1NS(=O)(=O)c1ccc(Oc2ccccc2)cc1 (stereo not given) — higher, 132 to 133 °C
- C/C(=C\C(=O)Nc1ccccc1C(=O)O)c1ccc(OC(F)F)c(OC(F)F)c1 — higher, 170 to 173 °C
- COCCOc1ccc(C#CC2(O)CN3CCC2CC3)cc1 (stereo not given) — higher, 148 to 149 °C
- CCCc1nc(C(C)(C)O)c(C(=O)OCc2oc(=O)oc2C)n1Cc1ccc(-c2ccccc2C(=O)O)cc1 — higher, 90 to 93 °C
- N#Cc1ccc(OCCCC(=O)O)cc1 — higher, 210 °C
- N=C(Nc1ccc(Cl)c(Cl)c1)Nc1ncccc1OCc1ccccc1 — higher, 161 to 162 °C
- CC1(CCSc2nc3ccccc3o2)Cn2cc([N+](=O)[O-])nc2O1 (stereo not given) — higher, 174 to 175 °C
- COc1cccc2c1CN(c1c(F)cc3c(=O)c(C(=O)O)cn(-c4ccc(F)cc4)c3c1F)C2 — higher, 278 to 284 °C
- O=C(NO)C1(S(=O)(=O)c2ccc(OCc3ccccc3)cc2)CCN(Cc2ccccc2)CC1 — higher, 89 °C
- COc1ccc(C2CCN(c3c(C)c(C)c4c(c3C)[C@@H](c3ccc(C)cc3)C(C)(C)O4)CC2)cc1 — higher, 183 to 185 °C
- O=c1oc(-c2ccccc2)cc(O)c1SCC1CC1 — higher, 136 to 137 °C
- O=C1c2ccccc2C(OCC2CO2)N1c1cccc(Cl)c1 (stereo not given) — higher, 170 °C
- O=C1C=c2c(c3c4ccccc4sc3c3[nH]c4ccccc4c23)=N1 — higher, > 300 °C
- COc1c(I)c(OC)c2ccccc2c1C(=O)OCc1ccccc1 — higher, 80 to 83 °C
- Cc1ccc2c(c1)S(=O)(=O)N=CN2C1CC1 — higher, 192 to 195 °C
- CC(C)N1CCN(c2ccc([N+](=O)[O-])cc2)C(=O)C1 — higher, 87 to 90 °C
- COc1ccc(Nc2cc(-c3ccccc3)nc3ccccc23)cc1Cl — higher, 272 to 274 °C
- CCN(CC)Cc1nc(-c2ncn3c2[C@@H]2CCN2C(=O)c2c(Br)cccc2-3)no1 — higher, 206 to 209 °C
- O=c1c(Cc2ccccc2)c2n(c(=O)n1CCCCCl)CCCS2(=O)=O — higher, 103 to 105 °C
- CC(=O)Nc1cccc(C#CCCn2nc3ccccc3n2)n1 — higher, 93 to 94 °C
- Cc1ccc2nc(C3(c4ccc(S(N)(=O)=O)cc4)C=C(C(F)(F)C(F)(F)F)NN3)sc2c1 (stereo not given) — higher, 234 to 235 °C
- COc1ccc2oc(-c3nc(C(C)(C)C)cs3)cc2c1 — higher, 80 to 81 °C
- NS(=O)(=O)OCCc1ccccn1 — higher, 89 to 91 °C
- CN(C)c1ccc(-c2cc(-c3ccnc4c(C(=O)c5cccs5)cnn34)ccc2F)cc1 — higher, 219 to 221 °C
- COC(=O)c1c(O)c2cc(Cl)ccc2n1-c1ccccc1 — higher, 170 to 173 °C
- CC(C)(n1cncn1)C(O)(Cc1nc[nH]n1)c1ccc(C(F)(F)F)cc1F (stereo not given) — higher, 174 to 175 °C
- O=C1N(CC2CCCO2)c2ccccc2C12COc1cc3c(cc12)OCCO3 (stereo not given) — higher, 174 to 176 °C
- CCOC(=O)c1nc2c(Cl)nc3cc(C(F)(F)F)ccc3n2c1C — higher, 182 to 183 °C
- NS(=O)(=O)c1cc2c(s1)S(=O)(=O)CCN2 — higher, 250 to 252 °C
- Cn1cncc1C(O)(c1ccc(Cl)cc1)c1ccc2c(c1)c(-c1cccs1)cc(=O)n2C (stereo not given) — higher, > 260 °C
- Nc1ncnc2c1cnn2C1OC(CO)C(O)C1O (stereo not given) — higher, 253 °C
- CCOC(=O)C(C)Oc1ncn(-c2ccc(Cl)c(Cl)c2)n1 (stereo not given) — higher, 69 to 71 °C
- CN(C)c1nc(N2CCOCC2)nc(-n2ccnc2)n1 — higher, 156 to 158 °C
- C=CCOc1cc(O)c(C=NO)c(Cl)c1 — higher, 65 to 66 °C
- CCCNc1ccc(Cl)cc1Cl — higher, 121 °C
- Cc1ccc(S(=O)(=O)N2CCN(S(=O)(=O)c3ccc(C)cc3)CC(=O)NCC(C3CCCCC3)NC(=O)CN(S(=O)(=O)c3ccc(C)cc3)CC2)cc1 (stereo not given) — higher, 224 °C
- CNC(=O)C(Cc1ccc(OC)cc1)NC(=O)C(CC(C)C)C(CC(=O)O)SC(C)=O (stereo not given) — higher, 92 to 95 °C
- CSc1nn2c(N)cc(C)nc2c1S(=O)(=O)c1ccc(C(C)(C)C)cc1 — higher, > 230 °C
- COC(=O)c1ccc(CN2CCN(S(=O)(=O)c3ccccc3)CC2)cc1 — higher, 145 to 146 °C
- O=C1Nc2cccc(-c3ccoc3)c2C12COc1cc3c(cc12)OCO3 (stereo not given) — higher, 230 to 231 °C
- CC(C)(C)OC(=O)NC1CCN(Cc2ccccc2)CC1 — higher, 112 to 120 °C
- CCOC(=O)c1cnc2ccc(Oc3ccccc3)nc2c1Cl — higher, 133 to 137 °C
- C=CC(=O)NC(C)(C)c1ccc(OCc2ccccc2)cc1 — higher, 116 to 117 °C
- CCOc1csc2c(=O)c(SC)cn(C)c12 — higher, 214 to 217 °C
- CCON=C(CC)C1=C(O)CC(c2ccc(NC(C)=O)cc2)CC1=O (stereo not given) — higher, 135 to 136 °C
- COc1ccc(C(C#N)C(=O)Cc2ccccc2)cc1 (stereo not given) — higher, 115 to 116 °C
- CCOc1ccc(/C=C/c2nc3c([nH]2)c(=O)n(CC)c(=O)n3CC)cc1 — higher, 297 to 299 °C
- C#Cc1cnc(OCCC)c(-c2nc3c(CC)n(C4CCN(C(=O)OC(C)(C)C)CC4)nc3c(=O)[nH]2)c1 — higher, 221 °C
- CCOC(=O)CCCCCCOc1cc2c(c(Cl)c1Cl)C(=O)C(C)(C1CCCC1)C2 (stereo not given) — lower, 47 to 50 °C
- COC(=O)c1c(C(=O)OC)c(-c2ccc(OC)c(OC)c2)c2cc3c(cc2c1O)OCO3 — higher, 158 to 159 °C
- CCCCCCCCc1ccc(-c2ccc(COc3ccc(OCC(C)OC(=O)OCCCC)cc3)cc2)cc1 (stereo not given) — higher, 94 °C
- N#Cc1ccc(-c2ccc(C(CCC(=O)O)=NO)cc2)cc1 — higher, 157 to 159 °C
- Brc1cccc(C2Cc3cnc(Nc4ccc(CCN5CCN(c6ccccc6)CC5)cc4)nc3-c3ccccc32)c1 (stereo not given) — higher, 113 to 115 °C
- Cc1cc(C)cc(Cc2[nH]c(=O)[nH]c(=O)c2C(C)C)c1 — higher, 213 to 214 °C
